The record followed here is ChEMBL document CHEMBL1909046, “DrugMatrix in vitro pharmacology data”.

What is called IC50 is the concentration that inhibits the measured activity by half. A higher IC50 goes with a need for much substance.

One experiment concerns the target T1, Cytochrome P450 1A2 (Homo sapiens, UniProt P05177).
T1 sequence (P05177 whole entry): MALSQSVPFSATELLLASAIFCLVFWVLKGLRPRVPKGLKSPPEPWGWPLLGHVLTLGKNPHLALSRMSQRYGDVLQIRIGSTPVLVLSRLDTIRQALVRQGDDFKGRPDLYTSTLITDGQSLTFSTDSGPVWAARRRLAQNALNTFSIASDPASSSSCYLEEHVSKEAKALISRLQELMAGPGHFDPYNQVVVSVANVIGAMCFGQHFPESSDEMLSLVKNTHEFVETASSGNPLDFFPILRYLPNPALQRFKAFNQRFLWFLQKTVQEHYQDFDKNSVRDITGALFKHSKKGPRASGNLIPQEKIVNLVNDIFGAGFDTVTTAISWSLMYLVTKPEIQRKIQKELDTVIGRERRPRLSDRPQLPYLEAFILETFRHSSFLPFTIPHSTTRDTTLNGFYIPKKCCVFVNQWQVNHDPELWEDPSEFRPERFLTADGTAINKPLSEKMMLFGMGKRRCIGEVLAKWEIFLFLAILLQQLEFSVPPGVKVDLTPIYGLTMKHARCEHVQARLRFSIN

In a further experiment the target is Cytochrome P450 3A4 (Homo sapiens, UniProt P08684).
Cytochrome P450 3A4, sequence (P08684 whole entry): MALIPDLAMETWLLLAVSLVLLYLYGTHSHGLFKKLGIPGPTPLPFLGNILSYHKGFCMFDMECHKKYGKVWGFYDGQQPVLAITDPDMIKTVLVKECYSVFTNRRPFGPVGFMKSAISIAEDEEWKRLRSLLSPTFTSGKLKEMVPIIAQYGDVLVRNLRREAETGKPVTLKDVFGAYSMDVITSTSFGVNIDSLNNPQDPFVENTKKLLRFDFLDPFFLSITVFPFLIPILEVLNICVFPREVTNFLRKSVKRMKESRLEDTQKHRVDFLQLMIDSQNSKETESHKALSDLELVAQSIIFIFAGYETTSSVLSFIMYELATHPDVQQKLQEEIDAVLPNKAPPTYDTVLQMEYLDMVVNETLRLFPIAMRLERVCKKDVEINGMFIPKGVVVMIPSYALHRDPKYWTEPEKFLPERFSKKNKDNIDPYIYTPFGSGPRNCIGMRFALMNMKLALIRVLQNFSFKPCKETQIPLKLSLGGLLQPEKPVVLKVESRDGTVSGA

In turn, `S=C=Nc1cccc2ccccc12` [1-NAPHTHYLISOTHIOCYANATE] came in with an IC50 against Cytochrome P450 1A2 of 1000 nM. Regarding `CC(=O)Nc1cccc(O)c1` [METACETAMOL], it took 2000 nM to reach half-maximal inhibition against Cytochrome P450 1A2 (IC50). As to `CC(C)(C(=O)c1cccnc1)c1cccnc1` [METYRAPONE], it took 800 nM to reach half-maximal inhibition at Cytochrome P450 3A4 (IC50).
